According to ChEMBL document CHEMBL1201862, “PubChem BioAssay data set” (2004):
Calls of active or inactive are those of the source.

Experiments:
[1] = cytotoxicity in HEK-293T cells, dose response, cytotoxicity control for BCR NF-kB inhibitor project, luminescence, B-cell screen hits (AID 489021); type: functional, cell-based;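 also: HEK-293T cells carrying an NF-kB luciferase reporter; cells exposed to compound for about 14 hours before viability readout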
[2] = molecular target: T1, High affinity choline transporter 1 (Homo sapiens, UniProt Q9GZV3); assay: CHT inhibitors, dose response, cell-based, 5-point CRC, membrane potential dye (AID 504840); type: functional
T1 sequence (Q9GZV3 whole entry): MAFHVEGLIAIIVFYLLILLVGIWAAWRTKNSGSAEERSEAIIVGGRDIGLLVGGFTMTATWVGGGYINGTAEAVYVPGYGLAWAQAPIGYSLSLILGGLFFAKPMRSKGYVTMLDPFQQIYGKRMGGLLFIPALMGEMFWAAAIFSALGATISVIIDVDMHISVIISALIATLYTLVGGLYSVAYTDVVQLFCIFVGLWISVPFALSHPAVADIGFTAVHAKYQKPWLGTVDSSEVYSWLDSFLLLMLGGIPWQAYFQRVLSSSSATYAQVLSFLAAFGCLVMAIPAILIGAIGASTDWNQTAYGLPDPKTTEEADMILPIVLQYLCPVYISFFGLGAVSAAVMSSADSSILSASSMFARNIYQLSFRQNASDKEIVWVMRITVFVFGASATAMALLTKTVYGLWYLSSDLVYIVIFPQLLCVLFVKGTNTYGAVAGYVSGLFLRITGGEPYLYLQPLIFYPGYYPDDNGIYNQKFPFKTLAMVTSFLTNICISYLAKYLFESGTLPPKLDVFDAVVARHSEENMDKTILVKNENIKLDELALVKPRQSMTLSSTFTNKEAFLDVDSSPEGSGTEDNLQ

[3] = tested on: INS1; assay: beta cell apoptosis inhibitors, cytokine rescue, dose response, luminescence, retest (AID 449756); type: functional, cell-based; settings: Rattus norvegicus;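 also: cell death triggered by IL-1 beta plus TNF-alpha plus IFN-gamma mixture; protective hits raise ATP signal compared with cytokine alone wells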
[4] = molecular target: T2, Galanin receptor type 3 (Homo sapiens, UniProt O60755); assay: Fluorescence-based cell-based primary high throughput dose response assay to identify antagonists of the Galanin Receptor 3 (GalR3).; type: functional
T2 sequence (O60755 whole entry): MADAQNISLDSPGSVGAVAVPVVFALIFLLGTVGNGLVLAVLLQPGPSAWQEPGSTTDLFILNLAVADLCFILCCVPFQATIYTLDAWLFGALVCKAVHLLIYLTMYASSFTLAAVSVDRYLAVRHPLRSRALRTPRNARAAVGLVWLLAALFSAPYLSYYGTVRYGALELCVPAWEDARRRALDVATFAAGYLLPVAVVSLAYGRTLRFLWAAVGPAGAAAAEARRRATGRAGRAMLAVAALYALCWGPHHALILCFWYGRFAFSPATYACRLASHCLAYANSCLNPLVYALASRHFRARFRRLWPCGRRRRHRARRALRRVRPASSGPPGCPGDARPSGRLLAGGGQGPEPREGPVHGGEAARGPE

[5] = cells; type: functional, cell-based; settings: HEK-CNG
[6] = ZM109 Env clade C HIV-1 fusion inhibitors, dose response, HeLa effector, CEM target cells, luciferase, cherry-pick (AID 652058); type: functional, cell-based
[7] = inhibitors of clade B AD8 Env fusion, dose response, cell-based, cherry-pick (AID 652062); type: functional;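 also: luciferase signal from cell-cell fusion driven by HIV-1 clade B AD8 Env; potency is for inhibitors of fusion seen as a drop in luminescence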
[8] = molecular target: COUP transcription factor 2 (Homo sapiens, UniProt P24468); assay: Luminescence-based cell-based high throughput dose response assay to identify inhibitors of COUP-TFII (NR2F2).; type: functional;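 also: HEK293 cells transiently cotransfected with COUP-TFII expression vector and reporter; luciferase reporter luminescence driven by COUP-TFII from the pX2-168 reporter plasmid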
[9] = HepG2 cell cytotoxicity, dose response, cytotoxicity control, ATP luminescence, cherry-pick, activator set 2 (AID 1053143); type: functional, cell-based
[10] = molecular target: T3, Oxysterols receptor LXR-beta (Homo sapiens, UniProt P55055); type: functional, cell-based;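 also: agonist activity at LXR measured by a cell-based luminescence readout across a dose range, run as a counterscreen for daf-12 agonists; HEK293 cells with Gal4-LXR fusion and GAL4-driven luciferase reporter; potency for activation of Gal4-LXR reporter so compounds are agonists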
T3 sequence (P55055 whole entry): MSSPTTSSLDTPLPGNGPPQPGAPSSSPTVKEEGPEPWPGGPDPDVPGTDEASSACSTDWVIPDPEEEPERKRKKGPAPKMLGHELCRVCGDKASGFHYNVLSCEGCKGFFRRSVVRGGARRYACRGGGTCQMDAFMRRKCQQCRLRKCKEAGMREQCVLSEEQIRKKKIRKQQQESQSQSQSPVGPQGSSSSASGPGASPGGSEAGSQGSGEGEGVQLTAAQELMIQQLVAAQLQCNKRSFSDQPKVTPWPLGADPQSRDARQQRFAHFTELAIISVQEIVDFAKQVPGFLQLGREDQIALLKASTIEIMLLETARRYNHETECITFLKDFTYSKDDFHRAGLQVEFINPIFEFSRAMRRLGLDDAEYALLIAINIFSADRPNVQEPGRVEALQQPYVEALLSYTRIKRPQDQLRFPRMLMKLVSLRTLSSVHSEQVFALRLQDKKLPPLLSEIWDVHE

[11] = molecular target: Nonstructural protein 1 (Influenza A virus, UniProt Q194T2); type: functional, Influenza A virus (A/California/07/2009(H1N1))
[12] = HeLa cell cytotoxicity, dose response, cytotoxicity control for MgcRacGAP inhibitor project (AID 624300); type: functional
[13] = molecular target: T4, Rac GTPase-activating protein 1 (Homo sapiens, UniProt Q9H0H5); assay: MgcRacGAP GTPase-activating activity inhibitors, confirmation, biochemical, ADP Hunter fluorescence, primary and confirmatory (AID 624330); type: functional
T4 sequence (Q9H0H5 whole entry): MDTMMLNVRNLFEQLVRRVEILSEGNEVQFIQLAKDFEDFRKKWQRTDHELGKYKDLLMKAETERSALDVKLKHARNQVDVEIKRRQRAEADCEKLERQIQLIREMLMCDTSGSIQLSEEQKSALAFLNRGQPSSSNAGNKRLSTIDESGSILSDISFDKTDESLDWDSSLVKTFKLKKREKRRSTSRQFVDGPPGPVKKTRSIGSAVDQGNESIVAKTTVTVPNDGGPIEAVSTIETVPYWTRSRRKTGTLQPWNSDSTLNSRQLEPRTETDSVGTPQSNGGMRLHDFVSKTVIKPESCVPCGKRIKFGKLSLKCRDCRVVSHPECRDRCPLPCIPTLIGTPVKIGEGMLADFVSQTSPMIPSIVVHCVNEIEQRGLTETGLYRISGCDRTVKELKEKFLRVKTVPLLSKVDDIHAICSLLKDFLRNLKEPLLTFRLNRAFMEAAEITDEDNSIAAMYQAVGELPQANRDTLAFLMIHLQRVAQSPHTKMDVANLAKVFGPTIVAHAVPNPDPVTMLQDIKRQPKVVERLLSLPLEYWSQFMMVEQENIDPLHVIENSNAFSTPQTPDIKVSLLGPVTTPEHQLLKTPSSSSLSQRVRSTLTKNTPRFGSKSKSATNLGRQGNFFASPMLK

[14] = molecular target: T5, DNA repair protein RAD52 homolog (Homo sapiens, UniProt P43351); type: functional, biochemical
T5 sequence (P43351 whole entry): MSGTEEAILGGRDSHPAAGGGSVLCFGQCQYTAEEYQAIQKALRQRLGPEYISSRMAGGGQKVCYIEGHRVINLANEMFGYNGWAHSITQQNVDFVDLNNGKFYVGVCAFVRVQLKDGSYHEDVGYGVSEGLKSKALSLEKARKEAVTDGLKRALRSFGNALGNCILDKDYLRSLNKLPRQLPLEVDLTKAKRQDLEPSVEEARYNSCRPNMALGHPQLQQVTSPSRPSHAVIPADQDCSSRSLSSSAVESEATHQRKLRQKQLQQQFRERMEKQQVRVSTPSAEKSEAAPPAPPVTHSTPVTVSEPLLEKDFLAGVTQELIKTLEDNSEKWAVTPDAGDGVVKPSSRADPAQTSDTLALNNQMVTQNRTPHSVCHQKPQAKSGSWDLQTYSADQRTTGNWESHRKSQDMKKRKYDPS

[15] = molecular target: T6, Histone-lysine N-methyltransferase NSD2 (Homo sapiens, UniProt O96028); type: biochemical
T6 sequence (O96028 whole entry): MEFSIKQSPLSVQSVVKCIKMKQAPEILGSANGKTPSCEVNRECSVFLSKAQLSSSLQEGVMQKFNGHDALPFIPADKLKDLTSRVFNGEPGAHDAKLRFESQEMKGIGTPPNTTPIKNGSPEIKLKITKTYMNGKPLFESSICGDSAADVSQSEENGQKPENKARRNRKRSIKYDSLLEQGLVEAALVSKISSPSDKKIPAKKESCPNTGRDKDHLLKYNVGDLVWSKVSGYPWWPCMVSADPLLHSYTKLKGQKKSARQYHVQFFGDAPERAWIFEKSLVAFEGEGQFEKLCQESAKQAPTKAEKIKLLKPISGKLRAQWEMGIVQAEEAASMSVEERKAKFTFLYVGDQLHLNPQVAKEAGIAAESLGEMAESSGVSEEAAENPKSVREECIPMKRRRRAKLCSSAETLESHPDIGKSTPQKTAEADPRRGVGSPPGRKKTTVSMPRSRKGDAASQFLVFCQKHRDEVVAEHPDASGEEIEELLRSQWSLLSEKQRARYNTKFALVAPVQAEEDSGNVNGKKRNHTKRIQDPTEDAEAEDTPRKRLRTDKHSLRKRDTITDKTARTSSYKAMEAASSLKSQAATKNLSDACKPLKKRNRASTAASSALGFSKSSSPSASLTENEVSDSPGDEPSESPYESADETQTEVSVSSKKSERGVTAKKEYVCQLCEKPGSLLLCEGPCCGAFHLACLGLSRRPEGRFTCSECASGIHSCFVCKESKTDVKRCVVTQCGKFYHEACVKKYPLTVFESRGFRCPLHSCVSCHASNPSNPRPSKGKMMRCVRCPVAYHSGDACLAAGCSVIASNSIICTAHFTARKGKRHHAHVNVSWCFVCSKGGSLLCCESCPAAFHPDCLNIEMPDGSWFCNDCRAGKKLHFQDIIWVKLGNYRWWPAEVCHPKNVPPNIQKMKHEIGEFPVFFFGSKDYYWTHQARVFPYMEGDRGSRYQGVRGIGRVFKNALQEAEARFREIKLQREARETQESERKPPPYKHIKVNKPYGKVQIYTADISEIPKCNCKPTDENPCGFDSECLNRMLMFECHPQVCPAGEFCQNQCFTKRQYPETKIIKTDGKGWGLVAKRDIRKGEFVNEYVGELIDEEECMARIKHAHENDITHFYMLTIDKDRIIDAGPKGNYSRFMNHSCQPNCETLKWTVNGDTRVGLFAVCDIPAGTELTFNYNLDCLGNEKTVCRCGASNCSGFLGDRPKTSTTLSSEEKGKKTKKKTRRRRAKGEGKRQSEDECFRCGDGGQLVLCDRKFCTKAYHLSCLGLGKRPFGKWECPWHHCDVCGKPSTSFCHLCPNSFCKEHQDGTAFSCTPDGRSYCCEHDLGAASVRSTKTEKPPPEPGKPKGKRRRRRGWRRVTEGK

[16] = human group III sPLA2 inhibitors, dose response, biochemical, QFRET, IC50 (AID 743457);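 also: green fluorescence rise as the enzyme cleaves BODIPY PC-A2 in liposomes; potency for inhibition of the enzyme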

COUP transcription factor 2, sequence (P24468 whole entry): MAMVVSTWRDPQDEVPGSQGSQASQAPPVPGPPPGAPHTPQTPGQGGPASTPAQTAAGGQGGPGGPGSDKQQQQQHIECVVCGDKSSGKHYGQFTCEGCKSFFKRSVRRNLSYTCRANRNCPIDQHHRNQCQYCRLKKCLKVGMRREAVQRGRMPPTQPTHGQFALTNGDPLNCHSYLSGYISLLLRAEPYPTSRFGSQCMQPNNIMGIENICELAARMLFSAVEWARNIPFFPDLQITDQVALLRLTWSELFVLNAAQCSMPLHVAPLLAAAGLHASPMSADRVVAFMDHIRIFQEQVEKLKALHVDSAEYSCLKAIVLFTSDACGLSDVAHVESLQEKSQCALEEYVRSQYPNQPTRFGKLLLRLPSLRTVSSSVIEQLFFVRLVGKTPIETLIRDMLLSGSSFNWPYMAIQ
Nonstructural protein 1, sequence (Q194T2 whole entry): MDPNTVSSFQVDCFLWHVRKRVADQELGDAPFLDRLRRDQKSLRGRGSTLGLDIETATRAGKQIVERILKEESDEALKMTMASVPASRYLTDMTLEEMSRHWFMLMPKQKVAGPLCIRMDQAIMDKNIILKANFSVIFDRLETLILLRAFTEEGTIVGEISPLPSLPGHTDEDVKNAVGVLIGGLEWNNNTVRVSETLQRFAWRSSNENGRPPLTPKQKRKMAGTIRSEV

With `Cc1nn(C)c(C)c1CN(C)S(=O)(=O)c1ccc2ccccc2c1` the IC50 [1] was > 80 µM (inactive), the IC50 [2] was 12.6 µM (active) and the AC50 [3] was 1.93 µM (active). The IC50 [4] was 1.01 µM (active), the EC50 [5] was > 29.9 µM (inactive) and the AC50 [6] was 0.626 µM (active). The AC50 [7] was 2.42 µM (active) and the IC50 [8] was 3.25 µM (active).

In the case of `CC(=O)C(=CNc1cc(-c2ccc(C)cc2)nn1-c1ccccc1)C(C)=O`, the AC50 [9] is reported as 26 µM (active).

In the case of `CCN(CC)S(=O)(=O)c1ccc(C(=O)OCC(=O)Nc2ccc(-c3nc4ccc(C)cc4s3)cc2)cc1`, the EC50 [10] is reported as > 67.5 µM (inactive).

In the case of `Cc1cc2cc(CCNC(=O)c3cccs3)c(O)nc2cc1C`, the AC50 [9] is reported as 26 µM (active).

For `CC[n+]1ccc(/C=C/c2ccc(N(C)C)cc2)c2ccccc21`, the IC50 [11] was 9.07 µM (active), the CC50 [12] was 49.2 µM (active) and the IC50 [13] was 36.1 µM (active). The AC50 [14] was 2.21 µM (active), the AC50 [15] was 13.4 µM (active) and the IC50 [16] was 24.6 µM (inactive).
